Patent US5618726A, “Biodegradable azo dyes” (priority 1994, dated 1997)

Legend:
S. viridosporus T7A = test: Substrate removal by Streptomyces culture; details: growth period 14 days
Protocol: (§3) Each Streptomyces species was grown in a cotton-plugged 250 ml flask containing 25 ml of the following medium: 0.2M Tris buffer (pH 7.6), 100 ml; vitamin-free Casamino acids (Difco), 1.0 g; thiamine, 100 μg; biotin, 100 μg; D-glucose, 2 g; deionized water, 900 ml.
The dyes were filter-sterilized and added at 0.005% (w/v) to the autoclaved basal medium. Alternatively, azo dye stock solutions were sterilized by filtration (pore size 0.2 μm) and added to autoclaved basal medium at concentrations of 50 or 100 ppm. Three replicates of every culture were incubated, and each strain was grown in media supplemented individually with every substrate. Replicate sterile controls also were run in each experiment. […] Three replicates for each strain growth were incubated in only the basal medium as well.
A one ml sample of culture medium was centrifuged and then diluted 2.5-5.0 fold (actinomycete culture) or 5- to 10-fold (fungal culture) with distilled water. Alternatively, 1.0 ml of fungal supernatant was centrifuged and diluted 5-fold with 10 mM sodium 2,2-dimethylsuccinate buffer (DMS) of pH 4.5. […] To be certain that changes in substrate spectra were not due to pH variations, the effects of pH on the visible absorption of each compound were also assayed within physiological pH range in the culture media. While the spectra of sulfanilic acid (Max abs at 250 nm), vanillic acid (Max abs at 252 nm and 286 nm) and acid yellow 9 (Max abs at 336 nm) were unaffected by pH over the tested pH range, the spectra of several novel azo dyes were changed as evidenced by shifts of their Absmax. Thus, the spectrophotometric assays for the dyes were typically carried out at their isobestic points. […] Spectrophotometric measurements were carried out at the absorbance maxima for azo dyes 16, 17, 18, 19, 31, and 32 (See Table 1 below). […] The compounds were quantified by first developing standard curves of absorbance versus concentrations (0-50 μg) and then comparing measured absorbance values to the standard curves.

S. chromofuscus A11 = details: streptomyces chromofuscus a11 culture, 336 h
Protocol: (§1) Microbiol., 1984, 130:2905-2913.
(§2) Replicate sterile controls also were run in each experiment.
The Streptomyces were grown on the same media and under the same conditions as previously described. […] Thus, the spectrophotometric assays for substrates 1-12 were carried out at their specific isobastic points. Degradation was calculated as percent of substrates removed from culture broth, considering the evaporation factor (around 10%).

S. rochei A4 = test: Substrate removal by Streptomyces culture; type: cell-based, Streptomyces rochei; details: growth period 14 days
Description: as §2

S. chromofuscus A20 = details: streptomyces chromofuscus a20 culture, 336 h
Protocol: as §3
The dyes were filter-sterilized and added at 0.005% (w/v) to the autoclaved basal medium. Alternatively, azo dye stock solutions were sterilized by filtration (pore size 0.2 μm) and added to autoclaved basal medium at concentrations of 50 or 100 ppm. Three replicates of every culture were incubated, and each strain was grown in media supplemented individually with every substrate. Replicate sterile controls also were run in each experiment. Cultures were incubated at 37° C. for 14 days with shaking (200-250 rpm). Three replicates for each strain growth were incubated in only the basal medium as well.
A one ml sample of culture medium was centrifuged and then diluted 2.5-5.0 fold (actinomycete culture) or 5- to 10-fold (fungal culture) with distilled water. Alternatively, 1.0 ml of fungal supernatant was centrifuged and diluted 5-fold with 10 mM sodium 2,2-dimethylsuccinate buffer (DMS) of pH 4.5. Azo dye substrate present was then measured spectrophotometrically with a Hewlett-Packard 8452 diode array spectrophotometer operated by a PC Vectra computer equipped with HP's MS™-DOS/UV-VIS software. To be certain that changes in substrate spectra were not due to pH variations, the effects of pH on the visible absorption of each compound were also assayed within physiological pH range in the culture media. […] Thus, the spectrophotometric assays for the dyes were typically carried out at their isobestic points. For instance, the spectrophotometric assays were carried out at 450 nm for azo dye 1 and 400 nm for azo dye 2. […] The compounds were quantified by first developing standard curves of absorbance versus concentrations (0-50 μg) and then comparing measured absorbance values to the standard curves.

S. rochei A10 = type: cell-based; details: streptomyces rochei a10 culture, 336 h
Description: as §1, §2

S. badius 252 = type: cell-based; details: streptomyces badius 252 culture, 336 h
Description: as §1, §2

S. diastaticus A13 = type: cell-based; details: streptomyces diastaticus a13 culture, 336 h
Description: as §1, §2

S. diastaticus A12 = type: cell-based; details: streptomyces diastaticus a12 culture, 336 h
Description: as §1, §2

S. rochei A14 = type: cell-based; details: streptomyces rochei a14 culture, 336 h
Description: as §1, §2

## COc1cc(C(=O)O)ccc1O [Vanillic acid, 4-hydroxy-3-methoxybenzoic acid, reference compound]
S. viridosporus T7A
  Percent substrate removed, S. viridosporus T7A: 3%
S. chromofuscus A11
  Percent substrate removed, S. chromofuscus A11: 100%
S. rochei A4
  Percent substrate removed, S. rochei A4: 100%
S. chromofuscus A20
  Percent substrate removed, S. chromofuscus A20: 5%
S. rochei A10
  Percent substrate removed, S. rochei A10: 91%
S. badius 252
  Percent substrate removed, S. badius 252: 7%
S. diastaticus A13
  Percent substrate removed, S. diastaticus A13: 34%
S. diastaticus A12
  Percent substrate removed, S. diastaticus A12: 58%
S. rochei A14
  Percent substrate removed, S. rochei A14: 72%
